Results published in patent US20240299376A1, “METHOD OF TREATING A CONDITION USING A […] EFFECTIVE DOSE OF 1-(1-OXO-1,2-DIHYDROISOQUINOLIN-5-YL)-5-(TRIFLUOROMETHYL)-N-(2-(TRIFLUOROMETHYL)PYRIDIN-4-YL)-1H-PYRAZOLE-4-CARBOXAMIDE” (Janssen Pharmaceutica NV, priority 2021, published 2024).
“And” between values parts separate entries of the source, which are not always exact repeats. Equal values may be shown once. “Also recorded” adds a separate entry of the source. Read-outs that look alike come from different tables or passages of the source. Marks after values point to notes of the source that are not given here.

Test: FIH study 67856633LYM1001 plasma pharmacokinetics
Type: in vivo, human
Conditions: for AUC: read-out: AUCτ
Excerpt: The study consists of a dose escalation phase (Part 1), to determine the recommended Phase 2 dose(s) (RP2D[s]), followed by an expansion phase at the RP2D(s) (Part 2). The dose escalation phase is supported using an adaptive dose escalation strategy guided by the modified continual reassessment method (mCRM) based on a Bayesian Logistic Regression Model (BLRM) with escalation with overdose control (EWOC) principle. The mCRM design allows the use of all cumulative dose-limiting toxicities (DLT) data up to the current dose cohort.
In Part 1, subjects were enrolled in cohorts of daily oral doses at 50 mg, 100 mg, 200 mg (1×200 mg or 4×50 mg), 300 mg (3×100 mg or 6×50 mg), 400 mg (2×200 mg or 8×50 mg), and 600 mg (3×200 mg), and loading dosing cohorts—400 mg loading dose once daily for 14 days, followed by 300 mg once daily, and 300 mg loading dose twice daily for 7 days followed by 300 mg once daily. In Part 2, subjects received daily oral doses of 300 mg.
In Part 1, PK data were available in subjects receiving doses of 50 mg (1×50 mg), 100 mg (2×50 mg), 200 mg (4×50 mg or 1×200 mg), 300 mg (6×50 mg or 3×100 mg), 400 mg (8×50 mg or 2×200 mg), and 600 mg (3×200 mg). Pharmacokinetic data were also available from the loading dose regimens of 400 mg (8×50 mg) loading dose once daily for 14 days followed by 300 mg (6×50 mg) once daily, and 300 mg (6×50 mg) loading dose twice daily for 7 days followed by 300 mg (6×50 mg) once daily.

[1] = Cycle 1 Day 1, 200 mg capsule, cohort 3 × 200 mg, individual values, N = 2, listed as JNJ-67856633
[2] = Cycle 2 Day 1, 50 mg capsule, cohort 6 × 50 mg (300 mg QD), mean, listed as JNJ-67856633
[3] = Cycle 2 Day 1, 200 mg capsule, cohort 200 mg, individual values, N = 2, listed as JNJ-67856633
[4] = Cycle 2 Day 1, 200 mg capsule, cohort 3 × 200 mg, individual values, N = 2, listed as JNJ-67856633
[5] = Cycle 2 Day 1, cohort 6 × 50 mg BID > QD, individual values, N = 2, listed as JNJ-67856633
[6] = Cycle 2 Day 1 / Cycle 1 Day 1, 50 mg capsule, cohort 50 mg, mean
[7] = Cycle 2 Day 1 / Cycle 1 Day 1, cohort 2 × 50 mg, mean
[8] = Cycle 2 Day 1 / Cycle 1 Day 1, cohort 2 × 200 mg food adlib, mean
[9] = Cycle 2 Day 1 / Cycle 1 Day 1, cohort 2 × 200 mg, mean
[10] = Cycle 2 Day 1 / Cycle 1 Day 1, cohort 3 × 200 mg, individual values, listed as JNJ-67856633
[11] = Cycle 2 Day 1 / Cycle 1 Day 1, cohort 4 × 50 mg, mean
[12] = Cycle 2 Day 1 / Cycle 1 Day 1, cohort 6 × 50 mg, mean
[13] = Cycle 2 Day 1 / Cycle 1 Day 1, cohort 8 × 50 mg > 6 × 50 mg, mean
[14] = Cycle 2 Day 1 / Cycle 1 Day 1, cohort 8 × 50 mg, mean

O=C(Nc1ccnc(C(F)(F)F)c1)c1cnn(-c2cccc3c(=O)[nH]ccc23)c1C(F)(F)F [Compound A, 1-(1-oxo-1,2-dihydroisoquinolin-5-yl)-5-(trifluoromethyl)-N-[2-(trifluoromethyl)pyridin-4-yl]-1H-pyrazole-4-carboxamide]
AUCτ (Cycle 1 Day 1, 50 mg capsule, cohort 6 × 50 mg (300 mg QD), mean, n = 9, listed as JNJ-67856633): 152^c μg · h/mL | Cmax (Cycle 1 Day 1, 50 mg capsule, cohort 6 × 50 mg (300 mg QD), mean, listed as JNJ-67856633): 8.81 µg/mL | Tmax (Cycle 1 Day 1, 200 mg capsule, cohort 3 × 200 mg, individual values, N = 2): 3.00, 3.00 h | AUCτ [1]: 76.6 µg·h/mL | Cmax [1]: 4.50 µg/mL | Cmin (Cycle 2 Day 1, 50 mg capsule, cohort 50 mg, mean): 6.85 µg/mL | Cmin (Cycle 2 Day 1, 50 mg capsule, cohort 2 × 50 mg, mean): 15.6 µg/mL | Cmin (Cycle 2 Day 1, 50 mg capsule, cohort 4 × 50 mg, Subject 100032 excluded, mean): 30.4^e μg/mL | Cmin (Cycle 2 Day 1, 50 mg capsule, cohort 6 × 50 mg (300 mg QD), mean): 39.5 µg/mL | AUCτ [2]: 1144 µg·h/mL | Cmax [2]: 55.2 µg/mL | Cmin (Cycle 2 Day 1, 50 mg capsule, cohort 8 × 50 mg, mean): 55.6 µg/mL | Cmax [3]: 14.5 µg/mL | Cmin [3]: 15.5, μg/mL and 11.4 μg/mL | Tmax [3]: 0.5 h | Cmin (Cycle 2 Day 1, 200 mg capsule, cohort 2 × 200 mg food adlib, mean): 33.3 µg/mL | Cmin (Cycle 2 Day 1, 200 mg capsule, cohort 2 × 200 mg, mean): 30.7 µg/mL | AUCτ [4]: 458 µg·h/mL and 1811 µg·h/mL | Cmax [4]: 21.2, μg/mL and 98.6 μg/mL | Cmin [4]: 13.5 µg/mL and 71.2 µg/mL | Tmax [4]: 0.00 h and 0.50 h | Cmax (Cycle 2 Day 1, cohort 6 × 50 mg BID > QD (300 mg BID 7 days then 300 mg QD), individual values, N = 2): about 29.2 μg/mL; also recorded: about 67 μg/mL | Cmax (Cycle 2 Day 1, cohort 6 × 50 mg BID > QD (300 mg BID 7 days then 300 mg QD), individual values, N = 2, listed as JNJ-67856633): 29.2, μg/mL and 67.0 μg/mL | AUCτ (Cycle 2 Day 1, cohort 6 × 50 mg BID > QD, individual values, N = 2): about 651 μg · h/mL; also recorded: about 1406 μg · h/mL | AUCτ [5]: 651 µg·h/mL and 1406 µg·h/mL | Cmin [5]: 26.1, μg/mL and 50.6 μg/mL | Tmax [5]: 3.00, 3.00 h | Cmin (Cycle 2 Day 1, cohort 8 × 50 mg > 6 × 50 mg, Subject 100070 excluded, mean): 55.8^g μg/mL | ARAUC [6]: 8.37 | ARCmax [6]: 7.30 | ARAUC (Cycle 2 Day 1 / Cycle 1 Day 1, 200 mg capsule, cohort 200 mg): 5.51^i | ARCmax (Cycle 2 Day 1 / Cycle 1 Day 1, 200 mg capsule, cohort 200 mg, individual values, listed as JNJ-67856633): 4.81, and 3.21 | ARAUC [7]: 7.80 | ARCmax [7]: 6.56 | ARAUC [8]: 12.7 | ARCmax [8]: 12.0 | ARAUC [9]: 9.35 | ARCmax [9]: 7.40 | ARAUC [10]: 3.73 and 23.7 | ARCmax [10]: 2.72 and 21.9 | ARAUC [11]: 8.10 | ARCmax [11]: 7.32 | ARCmax (Cycle 2 Day 1 / Cycle 1 Day 1, cohort 6 × 50 mg BID > QD): 10.4^j | ARAUC [12]: 8.50 | ARCmax [12]: 7.32 | ARAUC [13]: 9.80^g, h | ARCmax [13]: 7.7^g | ARAUC [14]: 12.4^f | ARCmax [14]: 11.3^f | AUC (human, plasma, oral, 50 mg, Cycle 1 Day 1, 50 mg capsule, cohort 50 mg, mean): 29.1 µg·h/mL | Cmax (human, plasma, oral, 50 mg, Cycle 1 Day 1, 50 mg capsule, cohort 50 mg, mean, read-out: Cmax): 1.6 µg/mL | Tmax (human, plasma, oral, 50 mg, Cycle 1 Day 1, 50 mg capsule, cohort 50 mg, median, read-out: Tmax): 3 h | AUC (human, plasma, oral, 50 mg, Cycle 2 Day 1, 50 mg capsule, cohort 50 mg, mean): 180 µg·h/mL | Cmax (human, plasma, oral, 50 mg, Cycle 2 Day 1, 50 mg capsule, cohort 50 mg, mean, read-out: Cmax): 8.74 µg/mL | Tmax (human, plasma, oral, 50 mg, Cycle 2 Day 1, 50 mg capsule, cohort 50 mg, median, read-out: Tmax): 2 h | AUC (human, plasma, oral, 100 mg, Cycle 1 Day 1, 50 mg capsule, cohort 2 × 50 mg, mean): 51.4 µg·h/mL | Cmax (human, plasma, oral, 100 mg, Cycle 1 Day 1, 50 mg capsule, cohort 2 × 50 mg, mean, read-out: Cmax): 3 µg/mL | Tmax (human, plasma, oral, 100 mg, Cycle 1 Day 1, 50 mg capsule, cohort 2 × 50 mg, median, read-out: Tmax): 4 h | AUC (human, plasma, oral, 100 mg, Cycle 2 Day 1, 50 mg capsule, cohort 2 × 50 mg, mean): 366 µg·h/mL
